Laboratory results published in PubChem BioAssay AID504473 (NMMLSC, 2011).
The source made the active and inactive calls.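 Rule for the calls: active = GFP ratio to DMSO above 1.5 or below 0.66; inactive = the rest.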

How the values were obtained:
Assay in all cases: expression changes of rapamycin-responsive GFP fusion proteins, S. cerevisiae, GFP-tagged clone panel, flow cytometry (AID 504473);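 note: median GFP fluorescence of the cells measured by high-throughput flow cytometry; test concentration not given here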
[1] = molecular target: General amino acid permease AGP1 (Saccharomyces cerevisiae S288c) (UniProt P25376); settings: S. cerevisiae GFP-tagged strains, 3 h, YCL025C
YAL060W = settings: S. cerevisiae GFP-tagged strains, 3 h
YAL061W = settings: S. cerevisiae GFP-tagged strains, 3 h
YBL087C = settings: S. cerevisiae GFP-tagged strains, 3 h
YBR072W = settings: S. cerevisiae GFP-tagged strains, 3 h
YBR139W = settings: S. cerevisiae GFP-tagged strains, 3 h
YBR208C = settings: S. cerevisiae GFP-tagged strains, 3 h
YBR248C = settings: S. cerevisiae GFP-tagged strains, 3 h
YCL064C = settings: S. cerevisiae GFP-tagged strains, 3 h
YCR002C = settings: S. cerevisiae GFP-tagged strains, 3 h
YCR005C = settings: S. cerevisiae GFP-tagged strains, 3 h
YDL130W = settings: S. cerevisiae GFP-tagged strains, 3 h
YDL204W = settings: S. cerevisiae GFP-tagged strains, 3 h
YDL205C = settings: S. cerevisiae GFP-tagged strains, 3 h
YDR070C = settings: S. cerevisiae GFP-tagged strains, 3 h
YDR382W = settings: S. cerevisiae GFP-tagged strains, 3 h
YDR399W = settings: S. cerevisiae GFP-tagged strains, 3 h
YDR453C = settings: S. cerevisiae GFP-tagged strains, 3 h
YEL007W = settings: S. cerevisiae GFP-tagged strains, 3 h
YEL060C = settings: S. cerevisiae GFP-tagged strains, 3 h
YEL063C = settings: S. cerevisiae GFP-tagged strains, 3 h
YEL071W = settings: S. cerevisiae GFP-tagged strains, 3 h
YER081W = settings: S. cerevisiae GFP-tagged strains, 3 h
YER117W = settings: S. cerevisiae GFP-tagged strains, 3 h
YER151C = settings: S. cerevisiae GFP-tagged strains, 3 h
YER156C = settings: S. cerevisiae GFP-tagged strains, 3 h
YFR031C-A = settings: S. cerevisiae GFP-tagged strains, 3 h
YFR053C = settings: S. cerevisiae GFP-tagged strains, 3 h
YGL036W = settings: S. cerevisiae GFP-tagged strains, 3 h
YGL062W = settings: S. cerevisiae GFP-tagged strains, 3 h
YGL135W = settings: S. cerevisiae GFP-tagged strains, 3 h
YGL147C = settings: S. cerevisiae GFP-tagged strains, 3 h
YGR019W = settings: S. cerevisiae GFP-tagged strains, 3 h
YGR034W = settings: S. cerevisiae GFP-tagged strains, 3 h
YGR088W = settings: S. cerevisiae GFP-tagged strains, 3 h
YGR121C = settings: S. cerevisiae GFP-tagged strains, 3 h
YHL021C = settings: S. cerevisiae GFP-tagged strains, 3 h
YHR018C = settings: S. cerevisiae GFP-tagged strains, 3 h
YHR087W = settings: S. cerevisiae GFP-tagged strains, 3 h
YHR141C = settings: S. cerevisiae GFP-tagged strains, 3 h
YHR144C = settings: S. cerevisiae GFP-tagged strains, 3 h
YHR203C = settings: S. cerevisiae GFP-tagged strains, 3 h
YIL043C = settings: S. cerevisiae GFP-tagged strains, 3 h
YIL051C = settings: S. cerevisiae GFP-tagged strains, 3 h
YIL052C = settings: S. cerevisiae GFP-tagged strains, 3 h
YIL066C = settings: S. cerevisiae GFP-tagged strains, 3 h
YIL069C = settings: S. cerevisiae GFP-tagged strains, 3 h
YJL056C = settings: S. cerevisiae GFP-tagged strains, 3 h

Sequence of General amino acid permease AGP1 (Saccharomyces cerevisiae S288c) (P25376 whole entry, looked up): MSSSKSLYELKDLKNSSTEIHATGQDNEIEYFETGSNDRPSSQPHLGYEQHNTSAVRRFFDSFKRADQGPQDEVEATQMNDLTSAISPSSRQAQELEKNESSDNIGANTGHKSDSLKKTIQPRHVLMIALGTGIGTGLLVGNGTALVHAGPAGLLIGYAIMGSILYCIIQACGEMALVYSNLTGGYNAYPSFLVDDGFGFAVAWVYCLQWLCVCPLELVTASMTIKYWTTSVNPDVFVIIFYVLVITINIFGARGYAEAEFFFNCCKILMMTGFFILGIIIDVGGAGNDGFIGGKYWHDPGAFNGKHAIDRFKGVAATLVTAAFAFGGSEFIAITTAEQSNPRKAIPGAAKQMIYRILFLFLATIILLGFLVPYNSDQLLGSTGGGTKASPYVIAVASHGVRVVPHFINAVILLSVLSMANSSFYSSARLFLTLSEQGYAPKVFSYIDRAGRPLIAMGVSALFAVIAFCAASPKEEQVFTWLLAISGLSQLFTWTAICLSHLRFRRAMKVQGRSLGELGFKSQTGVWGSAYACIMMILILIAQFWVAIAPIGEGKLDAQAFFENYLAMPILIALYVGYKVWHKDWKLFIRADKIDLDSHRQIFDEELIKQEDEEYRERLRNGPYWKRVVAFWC

SMILES: CNc1nc(N)c([N+](=O)[O-])c(Nc2ccccc2)n1
- GFP ratio to DMSO [1]: 0.776 (inactive)
- GFP ratio to DMSO (YAL060W): 0.91 (inactive)
- GFP ratio to DMSO (YAL061W): 0.796 (inactive)
- GFP ratio to DMSO (YBL087C): 1 (inactive)
- GFP ratio to DMSO (YBR072W): 0.795 (inactive)
- GFP ratio to DMSO (YBR139W): 0.915 (inactive)
- GFP ratio to DMSO (YBR208C): 0.853 (inactive)
- GFP ratio to DMSO (YBR248C): 0.927 (inactive)
- GFP ratio to DMSO (YCL064C): 0.878 (inactive)
- GFP ratio to DMSO (YCR002C): 0.929 (inactive)
- GFP ratio to DMSO (YCR005C): 1.37 (inactive)
- GFP ratio to DMSO (YDL130W): 1.09 (inactive)
- GFP ratio to DMSO (YDL204W): 0.948 (inactive)
- GFP ratio to DMSO (YDL205C): 0.983 (inactive)
- GFP ratio to DMSO (YDR070C): 0.918 (inactive)
- GFP ratio to DMSO (YDR382W): 1.14 (inactive)
- GFP ratio to DMSO (YDR399W): 0.947 (inactive)
- GFP ratio to DMSO (YDR453C): 0.899 (inactive)
- GFP ratio to DMSO (YEL007W): 0.874 (inactive)
- GFP ratio to DMSO (YEL060C): 0.694 (inactive)
- GFP ratio to DMSO (YEL063C): 1.03 (inactive)
- GFP ratio to DMSO (YEL071W): 1.66
- GFP ratio to DMSO (YER081W): 1.14 (inactive)
- GFP ratio to DMSO (YER117W): 0.909 (inactive)
- GFP ratio to DMSO (YER151C): 0.943 (inactive)
- GFP ratio to DMSO (YER156C): 0.978 (inactive)
- GFP ratio to DMSO (YFR031C-A): 1.06 (inactive)
- GFP ratio to DMSO (YFR053C): 0.83 (inactive)
- GFP ratio to DMSO (YGL036W): 0.822 (inactive)
- GFP ratio to DMSO (YGL062W): 1.34 (inactive)
- GFP ratio to DMSO (YGL135W): 1.08 (inactive)
- GFP ratio to DMSO (YGL147C): 1.05 (inactive)
- GFP ratio to DMSO (YGR019W): 0.906 (inactive)
- GFP ratio to DMSO (YGR034W): 1.07 (inactive)
- GFP ratio to DMSO (YGR088W): 0.924 (inactive)
- GFP ratio to DMSO (YGR121C): 0.942 (inactive)
- GFP ratio to DMSO (YHL021C): 1.07 (inactive)
- GFP ratio to DMSO (YHR018C): 0.874 (inactive)
- GFP ratio to DMSO (YHR087W): 0.827 (inactive)
- GFP ratio to DMSO (YHR141C): 1.04 (inactive)
- GFP ratio to DMSO (YHR144C): 0.896 (inactive)
- GFP ratio to DMSO (YHR203C): 1.04 (inactive)
- GFP ratio to DMSO (YIL043C): 1.02 (inactive)
- GFP ratio to DMSO (YIL051C): 0.923 (inactive)
- GFP ratio to DMSO (YIL052C): 0.931 (inactive)
- GFP ratio to DMSO (YIL066C): 0.844 (inactive)
- GFP ratio to DMSO (YIL069C): 1.11 (inactive)
- GFP ratio to DMSO (YJL056C): 0.808 (inactive)
